From publication PMC5797143, “Epigenetic modulation of inflammation and synaptic plasticity promotes resilience against stress in mice” (Nature Communications, 2018)

Assays:
[1] = test system: Rac1; experiment: Rac1 expression in E18 MSN-enriched primary culture (screening, dose response); assay type: cell-based, mouse
Source text: BDPP contains a variety of polyphenols. Orally consumed polyphenols are typically bioavailable in various organs and tissues as metabolites (phase II polyphenol conjugates and phenolic acids) following xenobiotic metabolism and gastrointestinal microbiome fermentation. It is possible that some metabolites may counteract the positive effect of the others. Therefore, if supplied as BDPP, the overall benefits might be reduced due to potential ‘cancellation’ effects. By identifying individual metabolites that selectively target key pathological mechanisms (e.g., Rac1 and IL-6) we can greatly improve the efficacy. We and others recently identified 21 BDPP-derived phenolic metabolites that accumulate in blood and/or in the CNS (14 polyphenolic metabolites and 7 phenolic acids, Supplementary Table 1)[25], [28], [33], among which 14 are currently accessible, [34]. We initiated a high-throughput screen of these metabolites for their ability to modulate IL-6 and Rac1. […]
Total RNA from MSN-enriched cultures or brain NAc was isolated using the RNeasy Mini Kit (Qiagen, Valencia, CA, USA) and reverse transcribed. Gene expression was measured in four replicates by quantitative RT-PCR using Maxima SYBR Green master mix (Fermentas) in ABI Prism 7900HT. […]

[2] = Plasma protein binding, mouse plasma; assay type: in vitro ADME
Experimental: Compound stability in mouse and human plasma and in mouse brain homogenate were conducted, [45]. Specifically, Mal-gluc or DHCA was incubated in duplicate with plasma at 37 °C and samples were taken at various time points and mixed with three volumes of ice-cold Stop Solution (methanol containing propranolol, diclofenac, or other internal standard). Samples were centrifuged to remove precipitated protein, and the supernatants were analyzed by LC/MS/MS to quantitate for remaining test compound. Data are converted to percentage remaining by dividing by the time zero concentration value. Data are fit to a first-order decay model to determine half-life. Plasma protein binding were conducted using both mouse and human plasma.

[3] = test system: enzymes involved in de novo methylation and demethylation; experiment: Expression of de novo methylation/demethylation enzymes in MSN-enriched primary culture; assay type: cell-based, mouse; settings: MSN-enriched primary cultures
Source text: Stress-induced reduction of Rac1 expression is associated with a repressed chromatin state surrounding the promoter region of Rac1 in the NAc[11]. Since Mal-gluc can cross the BBB, we hypothesized that Mal-gluc may promote Rac1 expression, in part, by modulating chromatin acetylation. We first assessed the effect of Mal-gluc on HDACs that play key roles in chromatin deacetylation. […] Using site directed quantitative chromatin immunoprecipitation (qCHIP), we examined the permissive histone H3 acetylation (AcH3) in Mal-gluc treated MSN-enriched primary cultures.
Total RNA from MSN-enriched cultures or brain NAc was isolated using the RNeasy Mini Kit (Qiagen, Valencia, CA, USA) and reverse transcribed. Gene expression was measured in four replicates by quantitative RT-PCR using Maxima SYBR Green master mix (Fermentas) in ABI Prism 7900HT. Primer sequences are listed in Supplementary Table 2. Mouse hypoxanthine phosphoribosyltransferase (HPRT) expression level was used as an internal control. Data were normalized using the 2^-ΔΔCt method. Levels of target gene mRNAs were expressed relative to those in control cultures or mice and plotted in GraphPad Prism.

[4] = test system: Toll-like receptor-4 mediated signaling pathways (JNK, p38, ERK, AKT); experiment: Multiplex ELISA of phosphorylated signaling proteins in PBMCs after LPS; assay type: cell-based, mouse
Experimental: To investigate how DHCA may attenuate IL-6 generation, we tested the effect of DHCA on Toll-like receptor-4 mediated signaling pathways. PBMCs were pretreated with DHCA and stimulated with LPS using the same protocol as during screening. Samples were taken at 0, 30 min, 60 min, 6 h and 16 h following LPS stimulation and cell lysates were subjected to a multiplex ELISA assay. […] Based on evidence that DNA methylation at a single CpG in the human IL-6 promoter region effectively alters IL-6 expression, we next tested whether DHCA can modulate IL-6 gene expression through methylation mechanisms. We treated PBMC cells with DHCA and measured the expression of enzymes essential for DNA methylation/demethylation. […] To investigate how methylation influences IL-6 gene expression, we employed the CpG-free luciferase reporter system. We cloned a ~280 bp CpG rich DNA segment from the mouse IL-6 promoter into a promoterless CpG-free reporter construct and transfected into N2a cells. We found the CpG-rich IL-6 promoter segment presented no inherent promoter activity as reflected by no differences in luciferase activity compared to the control construct (Fig. 2f). […] We then cloned CpG rich DNA segments from IL-6 introns 1, 3 or 4 into the CpG-free luciferase reporter construct with a minimal EF1 promoter and no enhancer activity. […] In contrast, the CpG-rich region of IL-6 intron 4 presented no observable enhancer activity (Fig. 2g). […] To test whether DHCA may influence the expression of other pro-inflammatory factors, we measured the level of secreted cytokines following LPS stimulation (Supplementary Fig. 3).
Luminex xMAP multiplexed immunoassays were used to evaluate the levels of phosphorylated proteins in PBMCs pre-treated with DHCA for 16 h followed by LPS stimulation. PBMCs were washed once with PBS and immediately lysed with MilliplexMAP Cell Signaling Universal Lysis Buffer and applied to the assay following manufacturer’s instruction (EMD Millipore). The phosphoprotein analytes used were: AKT (Ser473), JNK (Thr183/Tyr185), ERK (Thr185/Tyr187), p38 […] (Millipore, MA). Multiplex MAP mouse cytokine/chemokine Panel (EMD Millipore) was used to measure the levels of 32 cytokines/chemokines in mouse plasma or PBMC cultures.

[5] = test system: pro-inflammatory cytokines; experiment: Secreted cytokines of PBMCs following LPS stimulation (multiplex); assay type: cell-based, mouse
Experimental: To investigate how DHCA may attenuate IL-6 generation, we tested the effect of DHCA on Toll-like receptor-4 mediated signaling pathways. PBMCs were pretreated with DHCA and stimulated with LPS using the same protocol as during screening. Samples were taken at 0, 30 min, 60 min, 6 h and 16 h following LPS stimulation and cell lysates were subjected to a multiplex ELISA assay. […] Based on evidence that DNA methylation at a single CpG in the human IL-6 promoter region effectively alters IL-6 expression, we next tested whether DHCA can modulate IL-6 gene expression through methylation mechanisms. We treated PBMC cells with DHCA and measured the expression of enzymes essential for DNA methylation/demethylation. […] To investigate how methylation influences IL-6 gene expression, we employed the CpG-free luciferase reporter system. We cloned a ~280 bp CpG rich DNA segment from the mouse IL-6 promoter into a promoterless CpG-free reporter construct and transfected into N2a cells. We found the CpG-rich IL-6 promoter segment presented no inherent promoter activity as reflected by no differences in luciferase activity compared to the control construct (Fig. 2f). […] To test whether DHCA may influence the expression of other pro-inflammatory factors, we measured the level of secreted cytokines following LPS stimulation (Supplementary Fig. 3). […]

[6] = 30 min and 60 min following LPS, no further changes at 6 h and 16 h
[7] = PBMCs, DHCA pretreatment, 0, 30 min, 60 min, 6 h, 16 h after LPS

SMILES	primary screening, Rac1 expression ([1]; 9 brain bioavailable metabolites screened)	EC50 ([1]; E18 MSN-enriched primary culture, 16 h, read-out: calculated EC50, increase of Rac1 expression) [nM]	Plasma protein binding, Mean fraction unbound (mouse plasma) [2] [%]	expression of enzymes of de novo methylation and demethylation [3]	decrease in AKT activation [4, 6]	decrease in ERK activation [4, 6]	activation (phosphorylation) of JNK [4, 7]	activation (phosphorylation) of p38 [4, 7]	cytokine expression profile ([5]; PBMCs in the absence of LPS stimulation)	LPS-induced production of cytokines (GM-CSF, IL-1β, IL-12 p40 and p70, IL-17, MCP-1) ([5]; PBMCs with LPS stimulation)
COc1cc(-c2[o+]c3cc(O)cc(O)c3cc2O[C@@H]2O[C@H](CO)[C@@H](O)[C@H](O)[C@H]2O)cc(OC)c1O [Mal-gluc]	significantly increased Rac1 expression	3.52	55.70	did not affect	–	–	–	–	–	–
O=C(O)CCc1ccc(O)c(O)c1 [DHCA, 3(3,4-dihydroxy-phenyl) propionic acid]	–	–	–	–	~ 10%	~ 10%	no effect	no effect	did not influence cytokine expression profile	significantly reduced LPS-induced production of cytokines
